Laboratory results published in PubChem BioAssay AID212 (DTP/NCI, 2004).
Several values for one entry are separate records, joined by “and”; a condition that tells them apart may be missing. Equal values may be shown once. Records with an inconclusive call do not appear.

Test system: BDF1 mice, colon carcinoma 38 sc, T/C %
Experiment: NCI In Vivo Anticancer Drug Screen. Data for tumor model Colon Carcinoma 38 (subcutaneous) in B6D2F1 (BDF1) mice
Conditions: endpoint: median tumor weight (est.), higher = larger tumour
Summary of the method: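 T/C readout: treated group (T) measurement over vehicle control group (C) measurement. Endpoint is survival or tumor size in mice bearing a transplanted tumor.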

[1] = dose: 25.0 mg/kg/injection, schedule: Q07DX002 (ip), vehicle: saline
[2] = dose: 100.0 mg/kg/injection, schedule: Q07DX002 (ip), vehicle: saline
[3] = dose: 250.0 micrograms/kg/injection, schedule: Q07DX002 (ip), vehicle: saline
[4] = dose: 100.0 mg/kg/injection, schedule: Q07DX002 (ip), vehicle: saline with Tween-80
[5] = dose: 200.0 mg/kg/injection, schedule: Q07DX002 (ip), vehicle: saline with Tween-80
[6] = dose: 400.0 mg/kg/injection, schedule: Q07DX002 (ip), vehicle: saline with Tween-80
[7] = dose: 50.0 mg/kg/injection, schedule: Q07DX002 (ip), vehicle: saline
[8] = dose: 1.56 mg/kg/injection, schedule: Q07DX002 (ip), vehicle: saline with Tween-80
[9] = dose: 50.0 mg/kg/injection, schedule: Q07DX002 (ip), vehicle: Klucel (hydroxypropylcellulose) (HPC)
[10] = dose: 100.0 mg/kg/injection, schedule: Q07DX002 (ip), vehicle: Klucel (hydroxypropylcellulose) (HPC)
[11] = dose: 200.0 mg/kg/injection, schedule: Q07DX002 (ip), vehicle: Klucel (hydroxypropylcellulose) (HPC)

Cc1c(N)nc(C(CC(N)=O)NCC(N)C(N)=O)nc1C(=O)NC(C(=O)NC(C)C(O)C(C)C(=O)NC(C(=O)NCCc1nc(-c2nc(C(=O)NCCCNCCCc3ccccn3)cs2)cs1)C(C)O)C(OC1OC(CO)C(O)C(O)C1OC1OC(CO)C(O)C(OC(N)=O)C1O)c1cnc[nH]1 (stereo not drawn)
T/C (dose: 0.1 mg/kg/injection, schedule: Q07DX003 (ip), vehicle: saline): 96 % of control
T/C (dose: 0.2 mg/kg/injection, schedule: Q07DX003 (ip), vehicle: saline): 67 % of control
T/C (dose: 0.4 mg/kg/injection, schedule: Q07DX002 (ip), vehicle: water): 81 % of control
T/C (dose: 0.4 mg/kg/injection, schedule: Q07DX003 (ip), vehicle: saline): 72 % of control
T/C (dose: 0.8 mg/kg/injection, schedule: Q07DX002 (ip), vehicle: water): 66 % of control
T/C (dose: 0.8 mg/kg/injection, schedule: Q07DX003 (ip), vehicle: saline): 105 % of control
T/C (dose: 1.6 mg/kg/injection, schedule: Q07DX002 (ip), vehicle: water): 75 % of control
T/C (dose: 1.6 mg/kg/injection, schedule: Q07DX003 (ip), vehicle: saline): 71 % of control
T/C (dose: 3.2 mg/kg/injection, schedule: Q07DX002 (ip), vehicle: water): 72 % of control
T/C (dose: 3.2 mg/kg/injection, schedule: Q07DX003 (ip), vehicle: saline): 60 % of control
T/C (dose: 6.25 mg/kg/injection, schedule: Q07DX002 (ip), vehicle: saline): 70 % of control
T/C (dose: 6.4 mg/kg/injection, schedule: Q07DX002 (ip), vehicle: water): 41 % of control
T/C (dose: 12.8 mg/kg/injection, schedule: Q07DX002 (ip), vehicle: water): 45 % of control
T/C [1]: 32 % of control and 33 % of control
T/C [2]: 29 % of control

CCN1C=C/C(=C\C=C/c2cc[n+](CC)c3ccccc23)c2ccccc21
T/C (dose: 0.06 mg/kg/injection, schedule: Q07DX002 (ip), vehicle: saline): 91 % of control
T/C (dose: 0.12 mg/kg/injection, schedule: Q07DX002 (ip), vehicle: saline): 120 % of control
T/C (dose: 62.0 micrograms/kg/injection, schedule: Q07DX002 (ip), vehicle: saline): 101 % of control
T/C (dose: 125.0 micrograms/kg/injection, schedule: Q07DX002 (ip), vehicle: saline): 123 % of control
T/C [3]: 156 % of control

O=C(Nc1cccc(Cl)c1)ON1C(=O)C2C(C1=O)C1(Cl)C(Cl)C(Cl)C2(Cl)C1(Cl)Cl (stereo not drawn)
T/C [4]: 95 % of control
T/C [5]: 89 % of control
T/C [6]: 58 % of control

CN(C)CCC(=O)C(=Cc1ccc(O)cc1)C(=O)CCN(C)C
T/C [1]: 97 % of control
T/C [7]: 112 % of control
T/C [2]: 77 % of control

NC1=NC(=O)N2CC12 (stereo not drawn)
T/C [1]: 81 % of control
T/C [7]: 82 % of control and 83 % of control
T/C [2]: 81 % of control and 104 % of control
T/C (dose: 200.0 mg/kg/injection, schedule: Q07DX002 (ip), vehicle: saline): 66 % of control and 70 % of control
T/C (dose: 400.0 mg/kg/injection, schedule: Q07DX002 (ip), vehicle: saline): 79 % of control

COc1cc2c[n+](C)c3c4cc5c(cc4ccc3c2cc1OC)OCO5
T/C (dose: 20.0 mg/kg/injection, schedule: Q07DX003 (ip), vehicle: saline with Tween-80): 110 % of control
T/C (dose: 40.0 mg/kg/injection, schedule: Q07DX003 (ip), vehicle: saline with Tween-80): 97 % of control

CCCCCCCCSC1=C(Cl)C(=O)C(OC)=C(OC)C1=O
T/C [8]: 94 % of control and 95 % of control

CC1C=NNC1=O (stereo not drawn)
T/C [9]: 84 % of control
T/C [10]: 91 % of control and 96 % of control
T/C [11]: 97 % of control and 98 % of control
T/C (dose: 400.0 mg/kg/injection, schedule: Q07DX002 (ip), vehicle: Klucel (hydroxypropylcellulose) (HPC)): 76 % of control

Cc1cc(N(CC(C)Br)CC(C)Br)ccc1N=Nc1ccccc1C(=O)O (stereo not drawn)
T/C [8]: 87 % of control and 96 % of control
T/C (dose: 6.25 mg/kg/injection, schedule: Q07DX002 (ip), vehicle: saline with Tween-80): 85 % of control
T/C (dose: 12.5 mg/kg/injection, schedule: Q07DX002 (ip), vehicle: saline with Tween-80): 95 % of control and 102 % of control
T/C (dose: 25.0 mg/kg/injection, schedule: Q07DX002 (ip), vehicle: saline with Tween-80): 73 % of control and 86 % of control

CN(C)CCCOC(=O)Cc1cccc2c(=O)cc(-c3ccccc3)oc12
T/C [10]: 107 % of control
T/C [11]: 81 % of control

C=C1C(C)C2C(Cc3ccccc3)NC(=O)C23C(OC(C)=O)/C=C/C(C)(O)CC(C)C/C=C/C3C1O (stereo not drawn)
T/C (dose: 0.75 mg/kg/injection, schedule: Q07DX002 (ip), vehicle: Klucel (hydroxypropylcellulose) (HPC)): 86 % of control
T/C (dose: 1.5 mg/kg/injection, schedule: Q07DX002 (ip), vehicle: Klucel (hydroxypropylcellulose) (HPC)): 115 % of control
T/C (dose: 3.0 mg/kg/injection, schedule: Q07DX002 (ip), vehicle: Klucel (hydroxypropylcellulose) (HPC)): 77 % of control
T/C (dose: 6.0 mg/kg/injection, schedule: Q07DX002 (ip), vehicle: Klucel (hydroxypropylcellulose) (HPC)): 100 % of control
T/C (dose: 12.0 mg/kg/injection, schedule: Q07DX002 (ip), vehicle: Klucel (hydroxypropylcellulose) (HPC)): 95 % of control
T/C (dose: 24.0 mg/kg/injection, schedule: Q07DX002 (ip), vehicle: Klucel (hydroxypropylcellulose) (HPC)): 90 % of control

N=C(N)c1ccc(/C=C/c2ccc(C(=N)N)cc2O)cc1
T/C (dose: 6.25 mg/kg/injection, schedule: Q07DX002 (ip), vehicle: water): 86 % of control
T/C (dose: 12.5 mg/kg/injection, schedule: Q07DX002 (ip), vehicle: water): 95 % of control
T/C (dose: 25.0 mg/kg/injection, schedule: Q07DX002 (ip), vehicle: water): 112 % of control
T/C (dose: 100.0 mg/kg/injection, schedule: Q07DX002 (ip), vehicle: water): 108 % of control

Cc1cc(Nc2ccc3c(c2)OCO3)c2cc3c(cc2n1)OCO3
T/C [9]: 86 % of control
T/C [10]: 85 % of control
T/C [11]: 36 % of control

COC1CC(C)C(OC)C2=CC(=O)C=C(NC(=O)/C(C)=C/C=C\C(C)C(OC(N)=O)/C(C)=C\C(C)C1OC)C2=O (stereo not drawn)
T/C (dose: 3.13 mg/kg/injection, schedule: Q07DX002 (ip), vehicle: saline + alcohol): 111 % of control
T/C (dose: 6.25 mg/kg/injection, schedule: Q07DX002 (ip), vehicle: saline + alcohol): 110 % of control
T/C (dose: 12.5 mg/kg/injection, schedule: Q07DX002 (ip), vehicle: saline + alcohol): 105 % of control
T/C (dose: 25.0 mg/kg/injection, schedule: Q07DX002 (ip), vehicle: saline + alcohol): 110 % of control
T/C (dose: 50.0 mg/kg/injection, schedule: Q07DX002 (ip), vehicle: saline + alcohol): 102 % of control

CC12CC(C(=O)O)C3(O)CC(C)(C1)CC(C)(C2)C3 (stereo not drawn) (tested in a mixture with another compound)
T/C (dose: 12.5 mg/kg/injection, schedule: Q07DX003 (ip), vehicle: Klucel (hydroxypropylcellulose) (HPC)): 70 % of control
T/C (dose: 25.0 mg/kg/injection, schedule: Q07DX003 (ip), vehicle: Klucel (hydroxypropylcellulose) (HPC)): 94 % of control
T/C (dose: 50.0 mg/kg/injection, schedule: Q07DX003 (ip), vehicle: Klucel (hydroxypropylcellulose) (HPC)): 93 % of control
T/C (dose: 100.0 mg/kg/injection, schedule: Q07DX003 (ip), vehicle: Klucel (hydroxypropylcellulose) (HPC)): 121 % of control
T/C (dose: 200.0 mg/kg/injection, schedule: Q07DX003 (ip), vehicle: Klucel (hydroxypropylcellulose) (HPC)): 84 % of control

CN(C)C1C(=O)C(C(=O)NP(=O)(NCCCO)N(CCCl)CCCl)=C(O)C2(O)C(=O)C3=C(O)c4c(O)cccc4C(C)(O)C3CC12 (stereo not drawn)
T/C (dose: 50.0 mg/kg/injection, schedule: Q07DX002 (ip), vehicle: saline with Tween-80): 82 % of control
T/C [4]: 95 % of control
T/C [5]: 56 % of control
T/C [6]: 17 % of control

C/C=C(\C)c1cc(=O)c2c(C)cc3c(c2o1)C(=O)c1c(O)c(C2CC(C)(N(C)C)C(O)C(C)O2)cc(C2CC(N(C)C)C(O)C(C)O2)c1C3=O (stereo not drawn)
T/C (dose: 0.62 mg/kg/injection, schedule: Q07DX002 (ip), vehicle: saline): 117 % of control
T/C (dose: 1.25 mg/kg/injection, schedule: Q07DX002 (ip), vehicle: saline): 118 % of control
T/C (dose: 62.5 micrograms/kg/injection, schedule: Q07DX002 (ip), vehicle: saline): 109 % of control and 103 % of control
T/C [3]: 81 % of control and 84 % of control
T/C (dose: 500.0 micrograms/kg/injection, schedule: Q07DX002 (ip), vehicle: saline): 80 % of control and 85 % of control
T/C (dose: 1000.0 micrograms/kg/injection, schedule: Q07DX002 (ip), vehicle: saline): 74 % of control and 95 % of control
T/C (dose: 2000.0 micrograms/kg/injection, schedule: Q07DX002 (ip), vehicle: saline): 100 % of control
